Like-named read-outs stand apart in the source and are kept apart here.
Assays:
DOHH2 cells = assay: Cell proliferation assay (MTS), DOHH2 cells, 120 h; type: cell-based
Text: (§1) Cell Proliferation Assays
(§2) MTS testing kit was purchased from Promega. The RPMI-1640, Fetal bovine serum and Penicillin-Streptomycin were purchased from Gibco. Dimethyl sulfoxide (DMSO) was purchased from Sigma.
(§3) To investigate whether a compound is able to inhibit the activity of BCL-2 in cells, a mechanism-based assay using DOHH2 (DSMZ No.® ACC 47) and RS4;11 (ATCC® CRL-1873™) cell was developed. In this assay, inhibition of Bcl-2 was detected by the inhibition of DOHH2 cells proliferation. DOHH2 cells were cultured in culture flasks to 40-80% confluence in RPMI-1640 plus 10% fetal bovine serum. Cells were collected and plated onto 96-well plates at desired cell density (5000 cells/well). Plates were incubated overnight at 37° C., with 5% CO2 to adhere. Compounds were added to the plates, and the final compound concentrations were 10000, 3333, 1111, […], 124, 41, 14, 4.6 and 1.5 nM. Plates plated with DOHH2 or RS4;11 cells were placed at 37° C., with 5% CO2 for 120 h (DOHH2) or 72 h (RS4;11) respectively. 20 μl MTS/100 μl medium mixture solution were added to each well and incubate the plates for exactly 2 hours. The reaction was stopped by adding 25 μl 10% SDS per well. Measure absorbance at 490 nm and 650 nm (reference wavelength). IC50 was calculated using GraphPad Prism 5.0.
(§4) Select compounds prepared as described above were assayed according to the biological procedures described herein.

RS4;11 cells = assay: Cell proliferation assay (MTS), RS4;11 cells, 72 h; type: cell-based
Text: as §1, §2, §3, §4

Row | SMILES | IC50 (DOHH2 cells; Homo sapiens, DOHH-2, 120 h) [nM] | IC50 (DOHH2 cells) [nM] | other results
1 | CC1(C)CCC(CN2CCN(c3ccc(C(=O)NS(=O)(=O)c4cc5c(c([N+](=O)[O-])c4)N[C@H](C4CCC(C)(O)CC4)CO5)c(Oc4cnc5[nH]ccc5c4)c3)CC2)=C(c2ccc(Cl)cc2)C1 (single isomer, unassigned) [Example 2-3A] | 16 | – | IC50 (RS4;11 cells; Homo sapiens, RS4-11, 72 h): 1 nM
2 | CC1(C)CCC(CN2CCN(c3ccc(C(=O)NS(=O)(=O)c4cc5c(c([N+](=O)[O-])c4)N[C@H](C4CCC(C)(O)CC4)CO5)c(Oc4cnc5[nH]ccc5c4)c3)CC2)=C(c2ccc(Cl)cc2)C1 (single isomer, unassigned) [Example 2-3B] | – | – | IC50 (DOHH2 cells; Homo sapiens, DOHH-2): 33 nM; IC50 (RS4;11 cells; Homo sapiens): 8 nM
3 | CC1(C)CCC(CN2CCN(c3ccc(C(=O)NS(=O)(=O)c4cc5c(c([N+](=O)[O-])c4)N[C@H](CC4CCC(O)CC4)CO5)c(Oc4cnc5[nH]ccc5c4)c3)CC2)=C(c2ccc(Cl)cc2)C1 (single isomer, unassigned) [Example 2-239A] | – | 5 | IC50 (RS4;11 cells; Homo sapiens, RS4-11, 72 h): 1 nM
4 | CC1(C)CCC(CN2CCN(c3ccc(C(=O)NS(=O)(=O)c4cc5c(c([N+](=O)[O-])c4)N[C@H](CC4CCC(O)CC4)CO5)c(Oc4cnc5[nH]ccc5c4)c3)CC2)=C(c2ccc(Cl)cc2)C1 (single isomer, unassigned) [Example 2-239B] | – | 1 | IC50 (RS4;11 cells): 1 nM
5 | CC1(C)CCC(CN2CCN(c3ccc(C(=O)NS(=O)(=O)c4cc5c(c([N+](=O)[O-])c4)N[C@H](C4CCC(O)CC4)CO5)c(Oc4cnc5[nH]ccc5c4)c3)CC2)=C(c2ccc(Cl)cc2)C1 (single isomer, unassigned) [Example 2-240A] | – | 5 | IC50 (RS4;11 cells; Homo sapiens, RS4-11, 72 h): 1 nM
6 | CC1(C)CCC(CN2CCN(c3ccc(C(=O)NS(=O)(=O)c4cc5c(c([N+](=O)[O-])c4)N[C@H](C4CCC(O)CC4)CO5)c(Oc4cnc5[nH]ccc5c4)c3)CC2)=C(c2ccc(Cl)cc2)C1 (single isomer, unassigned) [Example 2-240B] | – | 1 | IC50 (RS4;11 cells): 1 nM
7 | CC1(C)CCC(CN2CCN(c3ccc(C(=O)NS(=O)(=O)c4cc5c(c([N+](=O)[O-])c4)N[C@@H](CC4CCC(O)CC4)CO5)c(Oc4cnc5[nH]ccc5c4)c3)CC2)=C(c2ccc(Cl)cc2)C1 (single isomer, unassigned) [Example 2-244A] | – | 7 | IC50 (RS4;11 cells; Homo sapiens, RS4-11, 72 h): 3 nM
8 | CC1(C)CCC(CN2CCN(c3ccc(C(=O)NS(=O)(=O)c4cc5c(c([N+](=O)[O-])c4)N[C@@H](CC4CCC(O)CC4)CO5)c(Oc4cnc5[nH]ccc5c4)c3)CC2)=C(c2ccc(Cl)cc2)C1 (single isomer, unassigned) [Example 2-244B] | – | 1 | IC50 (RS4;11 cells): 3 nM
9 | CC1(C)CCC(CN2CCN(c3ccc(C(=O)NS(=O)(=O)c4cc5c(c([N+](=O)[O-])c4)N[C@H](CN4CCOCC4)C5)c(Oc4cnc5[nH]ccc5c4)c3)CC2)=C(c2ccc(Cl)cc2)C1 [Example 1-1, (S)-2-((1H-pyrrolo[2,3-b]pyridin-5-yl)oxy)-4-(4-((4′-chloro-5,5-dimethyl-3,4,5,6-tetrahydro-[1,1′-biphenyl]-2-yl)methyl)piperazin-1-yl)-N-((2-(morpholinomethyl)-7-nitroindolin-5-yl)sulfonyl)benzamide] | 80 | – | IC50 (RS4;11 cells; Homo sapiens, RS4-11, 72 h): 48 nM
10 | CC1(C)CCC(CN2CCN(c3ccc(C(=O)NS(=O)(=O)c4cc5c(c([N+](=O)[O-])c4)N[C@@H](c4ccc(Cl)cn4)CO5)c(Oc4cnc5[nH]ccc5c4)c3)CC2)=C(c2ccc(Cl)cc2)C1 [Example 2-198B, (S)-2-((1H-pyrrolo[2,3-b]pyridin-5-yl)oxy)-4-(4-((4′-chloro-5,5-dimethyl-3,4,5,6-tetra-hydro-[1,1′-biphenyl]-2-yl)methyl)piperazin-1-yl)-N-((3-(5-chloropyridin-2-yl)-5-nitro-3,4-dihydro-2H-benzo[b][1,4]oxazin-7-yl)sulfonyl)benzamide] | 444 | – | –
11 | CC1(C)CCC(CN2CCN(c3ccc(C(=O)NS(=O)(=O)c4cc5c(c([N+](=O)[O-])c4)N[C@@H](Cc4ccc(Cl)cc4)CO5)c(Oc4cnc5[nH]ccc5c4)c3)CC2)=C(c2ccc(Cl)cc2)C1 [Example 2-207, (S)-2-((1H-pyrrolo[2,3-b]pyridin-5-yl)oxy)-4-(4-((4′-chloro-5,5-dimethyl-3,4,5,6-tetra-hydro-[1,1′-phenyl]-2-yl)methyl)piperazin-1-yl)-N-((3-(4-chlorobenzyl)-5-nitro-3,4-dihydro-2H-benzo[b][1,4]oxazin-7-yl)sulfo-nyl)benzamide] | 402 | – | –
12 | CC1(C)CCC(CN2CCN(c3ccc(C(=O)NS(=O)(=O)c4cc5c(c([N+](=O)[O-])c4)N[C@H](c4ccc(Cl)cn4)CO5)c(Oc4cnc5[nH]ccc5c4)c3)CC2)=C(c2ccc(Cl)cc2)C1 [Example 2-217, (R)-2-((1H-pyrrolo[2,3-b]pyridin-5-yl)oxy)-4-(4-((4′-chloro-5,5-dimethyl-3,4,5,6-tetra-hydro-[1,1′-biphenyl]-2-yl)methyl)piperazin-1-yl)-N-((3-(5-chloropyridin-2-yl)-5-nitro-3,4-dihydro-2H-benzo[b][1,4]oxazin-7-yl)sulfonyl)benzamide] | 715 | – | –
13 | CC1(C)CCC(CN2CCN(c3ccc(C(=O)NS(=O)(=O)c4cc5c(c([N+](=O)[O-])c4)O[C@H](c4ccc(Cl)cn4)CN5)c(Oc4cnc5[nH]ccc5c4)c3)CC2)=C(c2ccc(Cl)cc2)C1 [Example 2-218, (S)-2-((1H-pyrrolo[2,3-b]pyridin-5-yl)oxy)-4-(4-((4′-chloro-5,5-dimethyl-3,4,5,6-tetra-hydro-[1,1′-biphenyl]-2-yl)methyl)piperazin-1-yl)-N-((2-(5-chloropyridin-2-yl)-8-nitro-3,4-dihdyro-2H-benzo[b][1,4]oxazin-6-yl)sulfonyl)benzamide] | 507 | – | –
14 | CC1(C)CCC(CN2CCN(c3ccc(C(=O)NS(=O)(=O)c4cc5c(c([N+](=O)[O-])c4)N[C@H](CC4CCC(C)(O)CC4)CO5)c(Oc4cnc5[nH]ccc5c4)c3)CC2)=C(c2ccc(Cl)cc2)C1 (stereo partly drawn) [Example 2-219, (R)-2-((1H-pyrrolo[2,3-b]pyridin-5-yl)oxy)-4-(4-((4′-chloro-5,5-dimethyl-3,4,5,6-tetra-hydro-[1,1′-biphenyl]-2-yl)methyl)piperazin-1-yl)-N-((3-((4-hydroxy-4-methylcyclo-hexyl)methyl)-5-nitro-3,4-dihydro-2H-benzo [b][1,4]oxazin-7-yl)sulfonyl)benzamide] | 662 | – | –
15 | CC1(C)CCC(CN2CCN(c3ccc(C(=O)NS(=O)(=O)c4cc5c(c([N+](=O)[O-])c4)N[C@@H](C4CCNCC4)CO5)c(Oc4cnc5[nH]ccc5c4)c3)CC2)=C(c2ccc(Cl)cc2)C1 [Example 2-228, (S)-2-((1H-pyrrolo[2,3-b]pyridin-5-yl)oxy)-4-(4-((4′-chloro-5,5-dimethyl-3,4,5,6-tetra-hydro-[1,1′-biphenyl]-2-yl)methyl)piperazin-1-yl)-N-((5-nitro-3-(piperidin-4-yl)-3,4-dihydro-2H-benzo[b][1,4]oxazin-7-yl)sulfonyl)benzamide] | 48 | – | –
16 | CC1(C)CCC(CN2CCN(c3ccc(C(=O)NS(=O)(=O)c4cc5c(c([N+](=O)[O-])c4)N[C@@H](C4CCC(O)CC4)CO5)c(Oc4cnc5[nH]ccc5c4)c3)CC2)=C(c2ccc(Cl)cc2)C1 (stereo partly drawn) [Example 2-245B, (S)-2-((1H-pyrrolo[2,3-b]pyridin-5-yl)oxy)-4-(4-((4′-chloro-5,5-dimethyl-3,4,5,6-tetra-hydro-[1,1′-biphenyl]-2-yl)methyl)piperazin-1-yl)-N-((3-(4-hydroxycyclohexyl)-5-nitro-3,4-dihydro-2H-benzo[b][1,4]oxazin-7-yl)sulfonyl)benzamide] | – | 1 | –
17 | CN1CCN(CC[C@@H]2CNc3cc(S(=O)(=O)NC(=O)c4ccc(N5CCN(CC6=C(c7ccc(Cl)cc7)CC(C)(C)CC6)CC5)cc4Oc4cnc5[nH]ccc5c4)cc([N+](=O)[O-])c3N2)CC1 [Example 4-5, (R)-2-((1H-pyrrolo[2,3-b]pyridin-5-yl)oxy)-4-(4-((4′-chloro-5,5-dimethyl-3,4,5,6-tetra-hydro-[1,1′-biphenyl]-2-yl)methyl)piperazin-1-yl)-N-((2-(2-(4-methylpiperazin-1-yl)ethyl)-8-nitro-1,2,3,4-tetrahydroquinoxalin-6-yl)sulfonyl)benzamide] | 232 | – | –
18 | CC1(C)CCC(CN2CCN(c3ccc(C(=O)NS(=O)(=O)c4cc5c(c([N+](=O)[O-])c4)N[C@@H](C4CC4)CO5)c(-n4ncc5nc6[nH]ccc6cc54)c3)CC2)=C(c2ccc(Cl)cc2)C1 [Example 6-2, (S)-4-(4-((4′-chloro-5,5-dimethyl-3,4,5,6-tetrahydro-[1,1′-biphenyl]-2-yl)methyl)piperazin-1-yl)-N-((3-cyclopropyl-5-nitro-3,4-dihydro-2H-benzo[b][1,4]oxazin-7-yl)sulfonyl)-2-(pyrazolo[4,3-b]pyrrolo[3,2-e]pyridin-1(5H)-yl)benzamide] | 264 | – | –
19 | CC1(C)CCC(CN2CCN(c3ccc(C(=O)NS(=O)(=O)c4cc5c(c([N+](=O)[O-])c4)N[C@@H](Cc4ccccn4)CO5)c(-n4ncc5nc6[nH]ccc6cc54)c3)CC2)=C(c2ccc(Cl)cc2)C1 [Example 6-3, (S)-4-(4-((4′-chloro-5,5-dimethyl-3,4,5,6-tetrahydro-[1,1′-biphenyl]-2-yl)methyl)piperazin-1-yl)-N-((5-nitro-3-(pyridin-2-ylmethyl)-3,4-dihydro-2H-benzo[b][1,4]oxazin-7-yl)sulfonyl)-2-(pyrazolo[4,3-b]pyrrolo[3,2-e]pyridin-1(5H)-yl)benzamide] | 185 | – | –

From US11091478B2 (Fochon Pharmaceuticals, Ltd., priority 2017, dated 2021)
